In US9439438B2 (priority 2011, dated 2016):

System: mice
Settings: mouse, in vivo

[Cl][Mn][Cl] [Mn, MnCl2]
resistance to a lethal STx challenge: completely resistant
